Results on two compounds are retold here after publication PMC9841765 (Archives of biochemistry and biophysics, 2020).

Holding throughout (experiment): malachite green phosphate release
Holding throughout (type): biochemical
Common to all, as to details: pH 8.0, 5 mM MgCl2, 200 mM KCl, 37 °C

Experiment [1] concerns the target PaNFeoB (Pseudomonas aeruginosa, UniProt Q9HW43).
The target in experiment [2] is T1, SmNFeoB (Streptococcus mutans, UniProt Q8DVC3).
T1 sequence (Q8DVC3 1-273): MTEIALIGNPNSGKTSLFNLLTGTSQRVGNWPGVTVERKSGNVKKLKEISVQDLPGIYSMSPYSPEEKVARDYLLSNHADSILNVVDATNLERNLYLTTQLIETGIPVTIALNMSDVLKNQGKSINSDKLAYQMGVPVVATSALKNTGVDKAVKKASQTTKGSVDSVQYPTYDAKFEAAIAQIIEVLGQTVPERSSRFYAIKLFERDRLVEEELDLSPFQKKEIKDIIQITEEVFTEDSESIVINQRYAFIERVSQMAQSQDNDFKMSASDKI

The target of experiment [3] is T2, EcNFeoB (Escherichia coli, UniProt P33650).
T2 sequence (P33650 1-274): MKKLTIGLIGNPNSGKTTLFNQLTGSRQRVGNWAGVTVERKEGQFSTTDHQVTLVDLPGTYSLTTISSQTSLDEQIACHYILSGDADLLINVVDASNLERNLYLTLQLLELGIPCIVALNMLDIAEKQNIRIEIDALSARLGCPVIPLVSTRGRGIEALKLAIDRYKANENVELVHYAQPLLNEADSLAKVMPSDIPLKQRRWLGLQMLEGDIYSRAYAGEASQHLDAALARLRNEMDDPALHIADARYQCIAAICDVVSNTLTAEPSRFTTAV

For experiment [4], the target named is StNFeoB (Salmonella enterica, UniProt P74884).
StNFeoB, sequence (P74884 1-274): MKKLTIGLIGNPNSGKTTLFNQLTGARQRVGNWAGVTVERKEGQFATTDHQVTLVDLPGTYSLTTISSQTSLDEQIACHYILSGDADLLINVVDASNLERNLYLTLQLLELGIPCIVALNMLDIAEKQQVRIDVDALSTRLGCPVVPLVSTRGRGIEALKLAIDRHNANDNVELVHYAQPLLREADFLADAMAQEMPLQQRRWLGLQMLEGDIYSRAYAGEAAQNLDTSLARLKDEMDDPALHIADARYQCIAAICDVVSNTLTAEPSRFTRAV
Experiment [5] has as its target SaNFeoB (Staphylococcus aureus, UniProt Q5HD01).
The target of experiment [6] is T3, BcNFeoB (Bacillus cereus, UniProt Q72YQ6).
T3 sequence (Q72YQ6 1-269): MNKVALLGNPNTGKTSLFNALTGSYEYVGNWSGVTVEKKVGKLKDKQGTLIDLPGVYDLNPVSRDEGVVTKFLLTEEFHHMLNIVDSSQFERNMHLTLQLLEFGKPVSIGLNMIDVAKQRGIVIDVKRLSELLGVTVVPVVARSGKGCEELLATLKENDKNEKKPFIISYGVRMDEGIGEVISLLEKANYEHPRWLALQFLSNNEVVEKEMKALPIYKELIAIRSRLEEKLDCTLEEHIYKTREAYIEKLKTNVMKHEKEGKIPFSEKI

In experiment [7] the target is LmNFeoB (Listeria monocytogenes, UniProt Q8Y5F9).

SaNFeoB, sequence (Q5HD01 1-272): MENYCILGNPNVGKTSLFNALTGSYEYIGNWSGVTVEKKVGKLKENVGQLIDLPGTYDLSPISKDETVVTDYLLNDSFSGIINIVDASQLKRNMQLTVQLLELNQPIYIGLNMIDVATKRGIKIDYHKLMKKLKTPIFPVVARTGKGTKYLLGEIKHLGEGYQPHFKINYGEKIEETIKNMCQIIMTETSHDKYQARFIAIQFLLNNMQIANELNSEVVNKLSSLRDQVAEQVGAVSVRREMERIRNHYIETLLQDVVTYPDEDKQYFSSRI

On to `Nc1nc2c(ncn2[C@@H]2O[C@H](COP(=O)(O)OP(=O)(O)OP(=O)(O)O)[C@@H](O)[C@H]2O)c(=O)[nH]1` [GTP], for which the “malachite green phosphate release” value in experiment [1] was “S. Typhimurium and P. aeruginosa exhibited only GTP hydrolytic activity”; in experiment [2], “the NFeoB activities of S. aureus, S. mutans, and B. cereus”; in experiment [3] it was “Like E. coli, S. Typhimurium and P. aeruginosa exhibited only GTP hydrolytic activity”; in experiment [4], “S. Typhimurium and P. aeruginosa exhibited only GTP hydrolytic activity”; in experiment [5] it was “the NFeoB activities of S. aureus, S. mutans, and B. cereus”; in experiment [6] it was “the NFeoB activities of S. aureus, S. mutans, and B. cereus”. Moreover, the “malachite green phosphate release” value in experiment [7] was “Its GTPase activity was higher than other monovalent cations”.

In the case of `Nc1ncnc2c1ncn2[C@@H]1O[C@H](COP(=O)(O)OP(=O)(O)OP(=O)(O)O)[C@@H](O)[C@H]1O` [ATP], the “malachite green phosphate release” value in experiment [2] is “the NFeoB activities of S. aureus, S. mutans, and B. cereus”; in experiment [5], “the NFeoB activities of S. aureus, S. mutans, and B. cereus”; in experiment [6], “the NFeoB activities of S. aureus, S. mutans, and B. cereus”; in experiment [7], “LmNFeoB exhibited ATP hydrolysis activity similar to the activity of VcNFeoB”.
